Assays:
Assay in all cases: relative viability (nuclei count vs DMSO), 5 days (fraction); higher = more cells survive
AZD8055 + Lapatinib = compound: COc1ccc(-c2ccc3c(N4CCOC[C@@H]4C)nc(N4CCOC[C@@H]4C)nc3n2)cc1CO [AZD8055] + CS(=O)(=O)CCNCc1ccc(-c2ccc3ncnc(Nc4ccc(OCc5cccc(F)c5)c(Cl)c4)c3c2)o1 [Lapatinib] (partner 2 µM)
Method in brief: (§1)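 Relative viability was taken as the ratio of nuclei in treated wells to nuclei in vehicle wells. Lung cancer cell lines in 1536-well plates received compounds by pin tool one day after seeding, either one drug alone or a fixed anchor-drug dose plus five library-drug doses (not always all listed) in √10 steps. Nuclei were counted on 4× images after 5 days of treatment, and values are medians of duplicate plates.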

AZD8055 + Crizotinib = compound: COc1ccc(-c2ccc3c(N4CCOC[C@@H]4C)nc(N4CCOC[C@@H]4C)nc3n2)cc1CO [AZD8055] + C[C@@H](Oc1cc(-c2cnn(C3CCNCC3)c2)cnc1N)c1c(Cl)ccc(F)c1Cl [Crizotinib] (partner 1 µM)
Method in brief: as §1

AZD8055 + Dasatinib = compound: COc1ccc(-c2ccc3c(N4CCOC[C@@H]4C)nc(N4CCOC[C@@H]4C)nc3n2)cc1CO [AZD8055] + Cc1nc(Nc2ncc(C(=O)Nc3c(C)cccc3Cl)s2)cc(N2CCN(CCO)CC2)n1 [Dasatinib] (partner 0.075 µM)
Method in brief: as §1

AZD8055 + Pemetrexed = compound: COc1ccc(-c2ccc3c(N4CCOC[C@@H]4C)nc(N4CCOC[C@@H]4C)nc3n2)cc1CO [AZD8055] + Nc1nc2[nH]cc(CCc3ccc(C(=O)N[C@@H](CCC(=O)O)C(=O)O)cc3)c2c(=O)[nH]1 [Pemetrexed] (partner 0.2 µM)
Method in brief: as §1

Cell Line	relative viability (AZD8055 + Lapatinib; first compound 0.01 µM)	relative viability (AZD8055 + Lapatinib; first compound 0.03162 µM)	relative viability (AZD8055 + Lapatinib; first compound 0.1 µM)	relative viability (AZD8055 + Lapatinib; first compound 0.3162 µM)	relative viability (AZD8055 + Lapatinib; first compound 1 µM)	relative viability (AZD8055 + Crizotinib; first compound 0.01 µM)	relative viability (AZD8055 + Crizotinib; first compound 0.03162 µM)	relative viability (AZD8055 + Crizotinib; first compound 0.1 µM)	relative viability (AZD8055 + Crizotinib; first compound 0.3162 µM)	relative viability (AZD8055 + Crizotinib; first compound 1 µM)	relative viability (AZD8055 + Dasatinib; first compound 0.01 µM)	relative viability (AZD8055 + Dasatinib; first compound 0.03162 µM)	relative viability (AZD8055 + Dasatinib; first compound 0.1 µM)	relative viability (AZD8055 + Dasatinib; first compound 0.3162 µM)	relative viability (AZD8055 + Dasatinib; first compound 1 µM)	relative viability (AZD8055 + Pemetrexed; first compound 0.01 µM)	relative viability (AZD8055 + Pemetrexed; first compound 0.03162 µM)	relative viability (AZD8055 + Pemetrexed; first compound 0.1 µM)	relative viability (AZD8055 + Pemetrexed; first compound 0.3162 µM)	relative viability (AZD8055 + Pemetrexed; first compound 1 µM)
NCI-H838	1.04	0.656	0.352	0.237	0.336	0.969	0.745	0.476	0.293	0.307	0.269	0.264	0.262	0.231	0.217	0.228	0.236	0.231	0.18	0.201
NCI-H2023	0.971	0.611	0.361	0.148	0.132	0.521	0.507	0.339	0.119	0.119	0.568	0.358	0.166	0.0954	0.103	0.229	0.205	0.16	0.0973	0.122
201T	1.01	1.04	0.986	0.788	0.7	1.09	1.02	0.997	0.772	0.721	0.537	0.564	0.501	0.398	0.416	0.312	0.317	0.359	0.293	0.293
NCI-H1915	1.1	0.876	1.01	0.655	0.522	0.922	0.822	0.901	0.642	0.422	0.27	0.297	0.281	0.177	0.174	0.52	0.5	0.507	0.419	0.372
NCI-H2009	1.15	0.74	0.919	0.396	0.316	1.01	1.05	0.832	0.831	0.273	0.301	0.245	0.232	0.175	0.184	1.08	1.06	1.03	0.722	0.263
BEN	0.607	0.402	0.353	0.317	0.304	0.956	0.531	0.44	0.351	0.31	0.273	0.246	0.205	0.237	0.171	0.815	0.589	0.514	0.421	0.449
PC-14	0.315	0.204	0.244	0.16	0.148	1.06	1.02	0.771	0.448	0.21	0.319	0.309	0.199	0.0815	0.0639	0.153	0.214	0.178	0.212	0.162
SK-MES-1	0.444	0.387	0.371	0.274	0.318	0.94	0.944	0.781	0.494	0.318	0.404	0.337	0.256	0.213	0.179	0.947	0.892	0.833	0.408	0.326
